Tests used:
Test in all cases: relative viability (nuclei count vs DMSO), 5 days (fraction); higher = more cells survive
[1] = compound: Cn1cc(-c2cnn3c(N)c(Br)c([C@@H]4CCCNC4)nc23)cn1
In short: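 Lung cancer cell lines received five library-drug doses (not always all listed) spaced by √10, pinned on vehicle-anchored 1536-well plates after an overnight stay at 37 °C. Five days later, with no medium change, nuclei were Hoechst-stained, imaged at 4× and counted with MetaXpress. Viability is treated-well nuclei relative to vehicle-well nuclei, as a median across plates. Passing plates had control CV below 25% and at least one doubling.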

[2] = compound: Cn1cc(-c2cnn3c(N)c(Br)c([C@@H]4CCCNC4)nc23)cn1 + CC(=O)c1c(C)c2cnc(Nc3ccc(N4CCNCC4)cn3)nc2n(C2CCCC2)c1=O [Palbociclib] (partner 0.5 µM)
In short: (§1)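 Relative viability was taken as the ratio of nuclei in treated wells to nuclei in vehicle wells. Lung cancer cell lines in 1536-well plates received compounds by pin tool one day after seeding, either one drug alone or a fixed anchor-drug dose plus five library-drug doses (not always all listed) in √10 steps. Nuclei were counted on 4× images after 5 days of treatment, and values are medians of duplicate plates.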

[3] = compound: Cn1cc(-c2cnn3c(N)c(Br)c([C@@H]4CCCNC4)nc23)cn1 + COc1cccc2cc(-c3nc([C@H]4CC[C@H](C(=O)O)CC4)n4ncnc(N)c34)[nH]c12 [OSI-027] (partner 0.5 µM)
In short: as §1

[4] = compound: Cn1cc(-c2cnn3c(N)c(Br)c([C@@H]4CCCNC4)nc23)cn1 + COc1cc2c(Oc3ccc(NC(=O)C4(C(=O)Nc5ccc(F)cc5)CC4)cc3F)ccnc2cc1OCCCN1CCOCC1 [Foretinib] (partner 0.25 µM)
In short: as §1

| Cell Line | relative viability ([1]; 0.05 µM) | relative viability ([1]; 0.1581 µM) | relative viability ([1]; 0.5 µM) | relative viability ([1]; 1.581 µM) | relative viability ([1]; 5 µM) | relative viability ([2]; first compound 0.05 µM) | relative viability ([2]; first compound 0.1581 µM) | relative viability ([2]; first compound 0.5 µM) | relative viability ([2]; first compound 1.581 µM) | relative viability ([2]; first compound 5 µM) | relative viability ([3]; first compound 0.05 µM) | relative viability ([3]; first compound 0.1581 µM) | relative viability ([3]; first compound 0.5 µM) | relative viability ([3]; first compound 1.581 µM) | relative viability ([3]; first compound 5 µM) | relative viability ([4]; first compound 0.05 µM) | relative viability ([4]; first compound 0.1581 µM) | relative viability ([4]; first compound 0.5 µM) | relative viability ([4]; first compound 1.581 µM) | relative viability ([4]; first compound 5 µM) |
| --- | --- | --- | --- | --- | --- | --- | --- | --- | --- | --- | --- | --- | --- | --- | --- | --- | --- | --- | --- | --- |
| NCI-H2347 | 0.987 | 1.09 | 1.2 | 0.953 | 0.853 | 0.41 | 0.442 | 0.421 | 0.39 | 0.43 | 0.418 | 0.594 | 0.291 | 0.377 | 0.326 | 0.789 | 0.877 | 0.815 | 0.593 | 0.724 |
| NCI-H2405 | 0.935 | 1.01 | 0.959 | 0.983 | 0.769 | 0.529 | 0.46 | 0.533 | 0.452 | 0.389 | 0.607 | 0.594 | 0.652 | 0.623 | 0.54 | 0.978 | 0.952 | 1.05 | 0.989 | 0.919 |
| NCI-H3122 | 1.03 | 1.03 | 1.03 | 1.06 | 1.1 | 0.169 | 0.164 | 0.227 | 0.182 | 0.163 | 1.26 | 1.06 | 0.987 | 0.543 | 0.929 | 0.977 | 1.02 | 0.92 | 0.992 | 0.977 |
| PC-3 [JPC-3] | 0.957 | 1.01 | 1.01 | 1.02 | 1.03 | 0.499 | 0.53 | – | 0.512 | 0.562 | 0.717 | 0.918 | 0.804 | 0.702 | 0.847 | 1.02 | 1.2 | 0.997 | 1.03 | 1.06 |
| PC-14 | 1.04 | 1.01 | 1.01 | 0.707 | 0.425 | 0.614 | 0.358 | 0.269 | 0.156 | 0.121 | 1.02 | 0.83 | 0.638 | 0.248 | 0.206 | 0.974 | 1.04 | 0.933 | 0.903 | 0.53 |
| RERF-LC-KJ | 1.05 | 1.01 | 1.01 | 0.859 | 0.896 | 0.983 | 1.04 | 1.03 | 0.863 | 0.712 | 0.639 | 0.543 | 0.535 | 0.527 | 0.511 | 0.98 | 0.881 | 0.865 | 0.727 | 0.86 |
| SK-LU-1 | 1.18 | 0.696 | 0.809 | 0.432 | 0.268 | 0.388 | 0.308 | 0.366 | 0.323 | 0.225 | 0.39 | 0.279 | 0.237 | 0.248 | 0.183 | 0.819 | 0.709 | 0.485 | 0.28 | 0.211 |
| SK-MES-1 | 1.09 | 1.08 | 0.979 | 0.606 | 0.34 | 0.315 | 0.327 | 0.308 | 0.273 | 0.238 | 0.621 | 0.562 | 0.416 | 0.244 | 0.16 | 0.909 | 1.04 | 0.946 | 0.867 | 0.566 |
| SW 1573 | 0.93 | 1.07 | 1.12 | 0.924 | 0.894 | 0.482 | 0.447 | 0.333 | 0.264 | 0.301 | 0.547 | 0.745 | 0.606 | 0.505 | 0.465 | 0.97 | 1.09 | 0.865 | 0.848 | 1.01 |
| UMC-11 | 1.08 | 0.873 | 0.856 | 0.788 | 0.565 | 0.346 | 0.316 | 0.312 | 0.304 | 0.29 | 0.495 | 0.427 | 0.438 | 0.267 | 0.279 | 1 | 0.984 | 0.851 | 0.773 | 0.51 |

Source: the supplement of paper PMC10307832
